Structures can show the parent of a compound that is named as a salt.
Assays:
[1] = target: T1, human Nav1.8 (Homo sapiens, UniProt Q9Y5Y9); experiment: Membrane potential increase-inhibitory action on TTX-resistant Na channels in cells expressing human Nav1.8 gene (deltamethrin stimulation); format: cell-based
T1 construct: expressed in transfected cells
Protocol: A cell line expressing human Nav1.8 gene was used to evaluate the pharmacological effects of compounds of the invention.
1. A membrane potential-sensitive dye containing TTX (final concentration: 0.25 μM) was added to cells expressing human Nav1.8, prior to incubation at 37° C. for 30-60 minutes. 2. The test compound was added to the cells, and the mixture was stationed for 15-30 minutes at room temperature while shielded from light. 3. Deltamethrin (final concentration: 50 μM), a Nav1.8 channel stimulant, was added, and the change in fluorescence intensity due to increased membrane potential was measured.
The Nav1.8 channel inhibition of the test compound was determined by the following equation.

[2] = test system: rats that exhibited ectopic firing (left saphenous nerve); experiment: Suppression of ectopic firing in rats with cut saphenous nerve; format: in vivo; settings: rat, urethane anesthesia, administration via catheter in right cervical vein; number of firings every 10 seconds; read-out: Suppressing activity on ectopic firing, ED50
Protocol: (1) The suppressing effect on ectopic firing was evaluated by the following method, with reference to Burchiel, K J., Exp. Neurol., 102, 249-253 (1988). […] The left saphenous nerve was exposed under urethane anesthesia (1 g/kg body weight), and an area approximately 1 cm adjacent to the cutting site was removed from the surrounding tissue. A catheter was inserted into the right cervical vein for administration of the compound. (3) The removed nerve was placed on a platinum hook electrode and covered with liquid paraffin to avoid drying of the nerve. The electrode was connected to a microelectrode amp, and the change in potential was recorded on a computer from an oscilloscope, via an A/D converter. The recorded nerve firing was evaluated based on the number of firings every 10 seconds, using analysis software (AcqKnowledge).

[3] = test system: sodium channels in cultured rat hippocampus; settings: cited from earlier work
[4] = test system: ectopic firing; settings: as described in Patent document 1; cited from earlier work

T1 sequence (Q9Y5Y9 whole entry): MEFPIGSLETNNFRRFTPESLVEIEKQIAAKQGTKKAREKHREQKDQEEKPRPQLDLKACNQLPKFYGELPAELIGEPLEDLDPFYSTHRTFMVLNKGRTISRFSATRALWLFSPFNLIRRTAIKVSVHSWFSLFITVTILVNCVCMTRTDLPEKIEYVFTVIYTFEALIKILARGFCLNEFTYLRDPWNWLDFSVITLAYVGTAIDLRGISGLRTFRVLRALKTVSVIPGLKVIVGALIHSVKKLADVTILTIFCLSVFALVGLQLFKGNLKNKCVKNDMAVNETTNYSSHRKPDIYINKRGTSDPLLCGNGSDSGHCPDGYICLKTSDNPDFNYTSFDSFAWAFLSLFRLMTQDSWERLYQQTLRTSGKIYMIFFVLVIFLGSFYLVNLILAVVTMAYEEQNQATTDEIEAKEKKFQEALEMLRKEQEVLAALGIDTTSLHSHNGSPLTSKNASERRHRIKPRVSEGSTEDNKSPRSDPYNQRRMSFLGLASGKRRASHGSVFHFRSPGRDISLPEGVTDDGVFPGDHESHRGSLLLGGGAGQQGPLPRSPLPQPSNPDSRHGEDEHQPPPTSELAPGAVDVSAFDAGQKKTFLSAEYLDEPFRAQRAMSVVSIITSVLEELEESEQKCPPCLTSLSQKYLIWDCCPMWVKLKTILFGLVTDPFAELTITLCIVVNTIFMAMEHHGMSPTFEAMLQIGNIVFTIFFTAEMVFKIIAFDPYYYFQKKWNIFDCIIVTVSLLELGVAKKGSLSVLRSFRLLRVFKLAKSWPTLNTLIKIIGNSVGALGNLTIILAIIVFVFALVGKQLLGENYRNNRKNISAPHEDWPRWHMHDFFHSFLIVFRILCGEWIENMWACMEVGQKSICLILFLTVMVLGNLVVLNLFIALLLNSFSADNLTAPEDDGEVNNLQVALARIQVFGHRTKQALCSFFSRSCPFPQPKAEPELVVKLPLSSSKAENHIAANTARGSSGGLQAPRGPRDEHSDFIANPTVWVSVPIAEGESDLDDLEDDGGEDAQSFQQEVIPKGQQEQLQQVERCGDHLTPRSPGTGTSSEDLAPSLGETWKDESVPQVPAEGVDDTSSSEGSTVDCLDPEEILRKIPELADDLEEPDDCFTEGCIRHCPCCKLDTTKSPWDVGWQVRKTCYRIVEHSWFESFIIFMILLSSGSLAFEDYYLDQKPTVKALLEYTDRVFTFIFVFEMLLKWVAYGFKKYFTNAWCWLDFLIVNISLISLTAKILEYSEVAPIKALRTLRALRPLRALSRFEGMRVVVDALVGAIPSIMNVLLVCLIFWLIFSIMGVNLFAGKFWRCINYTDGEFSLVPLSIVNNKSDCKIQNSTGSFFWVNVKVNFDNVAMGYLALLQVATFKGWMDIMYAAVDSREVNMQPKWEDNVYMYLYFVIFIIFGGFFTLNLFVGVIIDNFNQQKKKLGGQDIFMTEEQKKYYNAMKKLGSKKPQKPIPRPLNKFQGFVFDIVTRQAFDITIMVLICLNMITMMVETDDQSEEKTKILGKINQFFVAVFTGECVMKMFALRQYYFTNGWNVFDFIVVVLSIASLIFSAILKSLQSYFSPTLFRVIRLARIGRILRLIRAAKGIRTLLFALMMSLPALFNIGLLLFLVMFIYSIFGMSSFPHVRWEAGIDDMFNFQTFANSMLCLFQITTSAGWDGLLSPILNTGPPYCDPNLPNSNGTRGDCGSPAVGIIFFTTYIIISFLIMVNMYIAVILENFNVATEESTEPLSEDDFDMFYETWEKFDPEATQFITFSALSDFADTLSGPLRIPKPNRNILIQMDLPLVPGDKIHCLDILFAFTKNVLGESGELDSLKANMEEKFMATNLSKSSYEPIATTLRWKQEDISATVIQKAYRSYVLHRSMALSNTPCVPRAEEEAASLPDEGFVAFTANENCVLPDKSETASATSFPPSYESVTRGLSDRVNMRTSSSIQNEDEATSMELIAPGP

Cc1nc2ccccn2c(=O)c1CCN1[C@@H]2CC[C@H]1C[C@@H](OCc1ccccc1F)C2 [Example 179, (Endo)-3-{2-[3-(2-fluorobenzyloxy)-8-azabicyclo[3.2.1]oct-8-yl]ethyl}-2-methylpyrido[1,2-a]pyrimidin-4-one oxalate]
IC50 [1]: 8.7 µM
ED50 [2]: 0.14 mg/kg

O=c1[nH]cccc1CN1CC2CCCC(C1)C2/C=C/c1ccccc1F (stereo not shown)
Inhibitory activity against sodium channels [3]: has an inhibitory activity
Inhibitory activity against ectopic firing [4]: inadequate

O=c1nc2n(c(=O)n1CCCN1[C@@H]3CC[C@H]1C[C@@H](CCc1ccccc1F)C3)CCCC2 [Example 129, (Endo)-3-(3-{3-[2-(2-fluorophenyl)ethyl)-8-azabicyclo[3.2.1]oct-8-yl}propyl]-6,7,8,9-tetrahydropyrido[1,2-a][1,3,5]triazine-2,4-dione oxalate]
IC50 [1]: 9.8 µM
ED50 [2]: 0.13 mg/kg

O=c1n(CCCN2[C@@H]3CC[C@H]2C[C@@H](OCc2ccccc2F)C3)nc2ccccn12 [Example 145, (Endo)-2-{3-[3-(2-fluorobenzyloxy)-8-azabicyclo[3.2.1]oct-8-yl]propyl}-2H-[1,2,4]triazolo[4,3-a]pyridin-3-one]
IC50 [1]: 0.53 µM
ED50 [2]: 0.28 mg/kg

Cc1nn(C[C@H](F)CN2C3CCC2CC(OCc2cccc(F)c2)C3)c(=O)n1C (stereo partly drawn) [Example 1, (Endo)-2-{(R)-2-fluoro-3-[3-(3-fluorobenzyloxy)-8-azabicyclo[3.2.1]oct-8-yl]propyl}-4,5-dimethyl-2,4-dihydro[1,2,4]triazol-3-one]
IC50 [1]: 3.2 µM
ED50 [2]: 0.14 mg/kg

Cc1nc(C)n(C)c(=O)c1CCN1[C@@H]2CC[C@H]1C[C@@H](OCc1ccccc1F)C2 [Example 184, (Endo)-5-{2-[3-(2-fluorobenzyloxy)-8-azabicyclo[3.2.1]oct-8-yl]ethyl}-2,3,6-trimethyl-3H-pyrimidin-4-one oxalate]
IC50 [1]: 7.6 µM
ED50 [2]: 0.19 mg/kg

O=c1n(CCCN2[C@@H]3CC[C@H]2C[C@@H](OCc2ccccc2F)C3)nc2n1CCS2 [Example 116, (Endo)-2-{3-[3-(2-fluorobenzyloxy)-8-azabicyclo[3.2.1]oct-8-yl]propyl}-5,6-dihydro-2H-thiazolo[2,3-c][1,2,4]triazol-3-one]
IC50 [1]: 5.8 µM
ED50 [2]: 0.15 mg/kg

O=c1n(CCCN2[C@@H]3CC[C@H]2C[C@@H](CCc2ccccc2F)C3)nc2ccccn12 [Example 149, (Endo)-2-(3-{3-[2-(2-fluorophenyl)ethyl)-8-azabicyclo[3.2.1]oct-8-yl}propyl]-2H-[1,2,4]triazolo[4,3-a]pyridin-3-one]
IC50 [1]: 0.28 µM
ED50 [2]: 0.15 mg/kg

Cc1cccc(COC2CC3CCC(C2)N3CC(F)Cn2nc(N(C)C)n(C)c2=O)c1 (stereo not drawn) [Example 25, (Endo)-5-dimethylamino-2-{2-fluoro-3-[3-(3-methylbenzyloxy)-8-azabicyclo[3.2.1]oct-8-yl]propyl}-4-methyl-2,4-dihydro[1,2,4]triazol-3-one]
IC50 [1]: 0.71 µM
ED50 [2]: < 0.1 mg/kg

Cc1nn(C[C@H](F)CN2[C@@H]3CC[C@H]2C[C@@H](OCc2ccccc2F)C3)c(=O)n1C [Example 4, (Endo)-2-{(R)-2-fluoro-3-[3-(2-fluorobenzyloxy)-8-azabicyclo[3.2.1]oct-8-yl]propyl}-4,5-dimethyl-2,4-dihydro[1,2,4]triazol-3-one]
IC50 [1]: 5 µM
ED50 [2]: 0.23 mg/kg

Cc1nc(=O)n(C[C@@H](F)CN2C3CCC2CC(OCc2ccc(F)cc2)C3)c(=O)n1C (stereo partly drawn) [Example 12, (Endo)-3-{(S)-2-fluoro-3-[3-(4-fluorobenzyloxy)-8-azabicyclo[3.2.1]oct-8-yl]propyl}-1,6-dimethyl-1H-[1,3,5]triazine-2,4-dione oxalate]
IC50 [1]: 8.7 µM
ED50 [2]: 0.28 mg/kg

Cc1nn(C[C@H](F)CN2C3CCC2CC(OCc2ccccc2CF)C3)c(=O)n1C (stereo partly drawn) [Example 6, (Endo)-2-{(R)-2-fluoro-3-[3-(2-fluoromethylbenzyloxy)-8-azabicyclo[3.2.1]oct-8-yl]propyl}-4,5-dimethyl-2,4-dihydro[1,2,4]triazol-3-one]
IC50 [1]: 5.2 µM
ED50 [2]: 0.27 mg/kg

COC(CN1[C@@H]2CC[C@H]1C[C@@H](OCc1ccccc1F)C2)Cn1nc2ccccn2c1=O (stereo partly drawn) [Example 157, (Endo)-2-{3-[3-(2-fluorobenzyloxy)-8-azabicyclo[3.2.1]oct-8-yl]-2-methoxypropyl}-2H-[1,2,4]triazolo[4,3-a]pyridin-3-one]
IC50 [1]: 1.2 µM
ED50 [2]: 0.28 mg/kg

CN1CCn2c1nn(CC(F)CN1[C@@H]3CC[C@H]1C[C@@H](OCc1ccc(F)cc1)C3)c2=O (stereo partly drawn) [Example 112, (Endo)-2-{2-fluoro-3-[3-(4-fluorobenzyloxy)-8-azabicyclo[3.2.1]oct-8-yl]propyl}-7-methyl-2,5,6,7-tetrahydroimidazo[2,1-c][1,2,4]triazol-3-one]
IC50 [1]: 12 µM
ED50 [2]: 0.29 mg/kg

Cn1ccn2c(=O)n(CCCN3[C@@H]4CC[C@H]3C[C@@H](OCc3ccccc3F)C4)c(=O)nc12 [Example 174, (Endo)-3-{3-[3-(2-fluorobenzyloxy)-8-azabicyclo[3.2.1]oct-8-yl]propyl}-8-methyl-8H-imidazo[1,2-a][1,3,5]triazine-2,4-dione]
IC50 [1]: 0.89 µM
ED50 [2]: 0.21 mg/kg

Cc1cc(-n2c(C)nn(CC(O)CN3[C@@H]4CC[C@H]3C[C@@H](OCc3ccccc3F)C4)c2=O)on1 (stereo partly drawn) [Example 47, (Endo)-2-{3-[3-(2-fluorobenzyloxy)-8-azabicyclo[3.2.1]oct-8-yl]-2-hydroxypropyl}-5-methyl-4-(3-methyl-isoxazol-5-yl)-2,4-dihydro[1,2,4]triazol-3-one oxalate]
IC50 [1]: 1.3 µM
ED50 [2]: 0.18 mg/kg

O=c1n(-c2ccccc2)cnn1CCCN1[C@@H]2CC[C@H]1C[C@@H](OCc1ccccc1F)C2 [Example 58, (Endo)-2-{3-[3-(2-fluorobenzyloxy)-8-azabicyclo[3.2.1]oct-8-yl]propyl}-4-phenyl-2,4-dihydro[1,2,4]triazol-3-one]
IC50 [1]: 0.13 µM
ED50 [2]: 0.18 mg/kg
